According to ChEMBL document CHEMBL1145714, “Activity of Parthenolide at 5HT2A receptors” (J Nat Prod, 1997):

Legend:
[1] = Displacement of [3H]ketanserin from 5HT2A receptor in rabbit cerebral cortex membrane; type: cell membranes, Oryctolagus cuniculus
[2] = molecular target: T1, 5-hydroxytryptamine receptor 2A (Rattus norvegicus, UniProt P14842); experiment: Displacement of [3H]ketanserin from 5HT2A receptor in rat brain membrane; type: cell membranes
[3] = molecular target: T1, 5-hydroxytryptamine receptor 2A; experiment: Displacement of [3H]ketanserin from rat 5HT2A receptor expressed in mouse NIH3T3 cells; type: cell-based

T1 sequence (P14842 whole entry): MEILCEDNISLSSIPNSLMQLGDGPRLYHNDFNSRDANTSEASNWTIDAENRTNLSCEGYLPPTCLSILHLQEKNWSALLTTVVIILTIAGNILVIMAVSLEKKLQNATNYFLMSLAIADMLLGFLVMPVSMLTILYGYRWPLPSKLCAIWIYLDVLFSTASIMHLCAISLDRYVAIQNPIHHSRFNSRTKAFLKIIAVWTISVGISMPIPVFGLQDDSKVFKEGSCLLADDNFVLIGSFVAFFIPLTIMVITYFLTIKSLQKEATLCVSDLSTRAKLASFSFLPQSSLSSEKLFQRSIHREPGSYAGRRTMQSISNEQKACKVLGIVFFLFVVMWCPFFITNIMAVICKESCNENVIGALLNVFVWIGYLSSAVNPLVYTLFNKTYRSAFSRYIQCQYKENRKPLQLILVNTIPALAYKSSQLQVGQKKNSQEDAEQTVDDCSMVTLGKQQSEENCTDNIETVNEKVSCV

Row | Ki [2] [µM] | Ki [3] [µM] | SMILES | Ki [1] [µM]
1 |  |  | CN1C[C@@H](NS(=O)(=O)N(C)C)C[C@@H]2c3cccc4c3c(cn4C)C[C@H]21 [MESULERGINE] | 0.0083
2 | 250 | 100 | C=C1C(=O)O[C@@H]2C3O[C@]3(C)CC/C=C(\C)CC[C@@H]12 (some centres undefined) | 230
